Laboratory results from PMC10318527, “Utilization of dietary mixed-linkage β-glucans by the Firmicute Blautia producta” (The Journal of Biological Chemistry, 2023).
“And” between values parts separate entries of the source, which are not always exact repeats. Equal entries are not always repeated. Where two headings read alike, the source gives them in different places.

Key:
BpGH16MLG = experiment: Initial screening of BpGH16MLG against substrates (TLC); type: biochemical, Blautia producta ATCC 27340; conditions: pH 5.7, 37 °C, 2 h
Experimental: After the appropriate incubation time, the reaction was terminated by boiling (5 min), and generated oligosaccharides were analyzed by thin layer chromatography (TLC). Typically, 1 μl of the reaction mixture was used for TLC analysis. TLC analysis was performed on Silica Gel 60 F254 (Merck), and produced sugars were visualized by spraying TLC with 5% H2SO4 in ethanol, followed by heating.

BpGH94MLG [1] = molecular target: T1, BpGH94MLG (Blautia producta, UniProt A0A7G5MNS2); experiment: Phosphorolysis activity of BpGH94MLG on substrates (TLC); type: biochemical, Blautia producta ATCC 27340; conditions: inorganic phosphate, 37 °C
T1 sequence (A0A7G5MNS2 1-804): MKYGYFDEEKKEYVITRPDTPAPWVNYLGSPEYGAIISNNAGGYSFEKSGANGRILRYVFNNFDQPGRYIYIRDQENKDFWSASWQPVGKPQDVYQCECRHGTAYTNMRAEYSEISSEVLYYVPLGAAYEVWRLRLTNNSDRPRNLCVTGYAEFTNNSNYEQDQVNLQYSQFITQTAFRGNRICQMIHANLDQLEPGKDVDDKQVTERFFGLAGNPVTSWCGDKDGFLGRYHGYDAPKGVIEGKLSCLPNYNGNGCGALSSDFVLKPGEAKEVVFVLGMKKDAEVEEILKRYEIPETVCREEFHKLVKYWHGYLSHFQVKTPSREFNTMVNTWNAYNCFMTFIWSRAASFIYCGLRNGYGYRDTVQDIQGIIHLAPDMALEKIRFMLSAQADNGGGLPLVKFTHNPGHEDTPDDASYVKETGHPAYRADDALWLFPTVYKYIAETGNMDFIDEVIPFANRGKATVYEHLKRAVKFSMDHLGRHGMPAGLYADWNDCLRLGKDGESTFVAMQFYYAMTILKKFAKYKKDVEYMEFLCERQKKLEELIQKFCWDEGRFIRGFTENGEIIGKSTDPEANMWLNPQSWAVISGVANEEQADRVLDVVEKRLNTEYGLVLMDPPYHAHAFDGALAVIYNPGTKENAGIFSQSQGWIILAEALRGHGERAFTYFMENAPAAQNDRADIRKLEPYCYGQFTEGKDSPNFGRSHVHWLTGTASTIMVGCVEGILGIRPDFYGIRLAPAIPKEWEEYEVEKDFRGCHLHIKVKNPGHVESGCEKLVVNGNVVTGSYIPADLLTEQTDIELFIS
Experimental: (§1) TLC was used for analyzing enzymatic actions. […] Kinetics parameters for BpGH94MLG were determined with G4G3G, G4G4G3G and cellotriose, following a p-hydroxybenzoic acid hydrazide (PAHBAH) reducing sugar assay ([69]).

BpSBPMLG = BpSBPMLG (Blautia producta, UniProt A0ABX6JB09); experiment: Isothermal titration calorimetry of oligosaccharide binding to BpSBPMLG; design: species or system Blautia producta ATCC 27340
Experimental: The binding of β-(1,4), β-(1,3), and MLG-oligosaccharides to BpSBPMLG was measured at 25 °C in 10 mM sodium phosphate buffer (pH 7) using a MicroCal PEAQ-ITC (Malvern). The protein was extensively dialyzed against 10 mM sodium phosphate and all glycan ligands were also dissolved in the same buffer to minimize the heat of dilution. 13 injections of an oligosaccharide were titrated on BpSBPMLG present in the sample cell. Various preliminary titration setups were tried by changing amounts of protein (5–100 μM) and ligand (50 μM–10 mM) to get the best experimental conditions. Thermodynamic binding parameters [calculates binding affinity (Kd), stoichiometry (n), enthalpy (ΔH), Gibbs free energy change (ΔG), and entropy (ΔS)] were determined using the MicroCal PEAQ-ITC analysis software.

BpGH3-AR8MLG = BpGH3-AR8MLG (Blautia producta, UniProt A0ABX6J8C8); type: biochemical, Blautia producta ATCC 27340; conditions: for Km / kcat: PAHBAH assay, 100 mM HEPES pH 6.5, 37 °C
Experimental: (§2) 150 μl of a freshly prepared 8:2 mixture of reagent A (50 mM sodium sulfite, 0.3 M 4-hydroxybenzhydrazide and 0.6 M HCl) and reagent B (50 mM trisodium citrate, 10 mM CaCl2, 0.5 M NaOH) were added to 50 μl sample. The reaction cocktail was boiled for 10 min at 100 °C. After the reaction was cooled down, the absorbance was recorded at 410 nm using the SpectraMax i3x multi-mode microplate reader. A calibration curve with different concentrations of glucose (0, 2, 4, 8, 16, 40, 80, 100, 200, 300, and 500 μM) was employed for each experiment to calculate the released amount of glucose (reducing end equivalents). The same samples were also used for control measurement, and the control value was subtracted from test reading prior to calculate kinetics parameters. In all cases, the Km, Vmax, and kcat were analyzed on GraphPad Prism. Three independent replicates were used for each test. TLC analyses were used for understanding the enzymatic degradation profiles of various oligosaccharides.

TaCDP = test system: TaCDP; design: method as in PMID 28687766; conditions: phosphorolytic reaction; cited from earlier work
BpGH94MLG [2] = molecular target: T1, BpGH94MLG; experiment: Phosphorolysis kinetics of BpGH94MLG (PAHBAH assay); type: biochemical, Blautia producta ATCC 27340
Experimental: as §1

BpGH3-X62MLG = molecular target: T2, BpGH3-X62MLG (Blautia producta, UniProt A0ABX6JIM0); experiment: Hydrolysis kinetics of BpGH3-X62MLG (PAHBAH assay, TLC)
T2 sequence (A0ABX6JIM0 1-920): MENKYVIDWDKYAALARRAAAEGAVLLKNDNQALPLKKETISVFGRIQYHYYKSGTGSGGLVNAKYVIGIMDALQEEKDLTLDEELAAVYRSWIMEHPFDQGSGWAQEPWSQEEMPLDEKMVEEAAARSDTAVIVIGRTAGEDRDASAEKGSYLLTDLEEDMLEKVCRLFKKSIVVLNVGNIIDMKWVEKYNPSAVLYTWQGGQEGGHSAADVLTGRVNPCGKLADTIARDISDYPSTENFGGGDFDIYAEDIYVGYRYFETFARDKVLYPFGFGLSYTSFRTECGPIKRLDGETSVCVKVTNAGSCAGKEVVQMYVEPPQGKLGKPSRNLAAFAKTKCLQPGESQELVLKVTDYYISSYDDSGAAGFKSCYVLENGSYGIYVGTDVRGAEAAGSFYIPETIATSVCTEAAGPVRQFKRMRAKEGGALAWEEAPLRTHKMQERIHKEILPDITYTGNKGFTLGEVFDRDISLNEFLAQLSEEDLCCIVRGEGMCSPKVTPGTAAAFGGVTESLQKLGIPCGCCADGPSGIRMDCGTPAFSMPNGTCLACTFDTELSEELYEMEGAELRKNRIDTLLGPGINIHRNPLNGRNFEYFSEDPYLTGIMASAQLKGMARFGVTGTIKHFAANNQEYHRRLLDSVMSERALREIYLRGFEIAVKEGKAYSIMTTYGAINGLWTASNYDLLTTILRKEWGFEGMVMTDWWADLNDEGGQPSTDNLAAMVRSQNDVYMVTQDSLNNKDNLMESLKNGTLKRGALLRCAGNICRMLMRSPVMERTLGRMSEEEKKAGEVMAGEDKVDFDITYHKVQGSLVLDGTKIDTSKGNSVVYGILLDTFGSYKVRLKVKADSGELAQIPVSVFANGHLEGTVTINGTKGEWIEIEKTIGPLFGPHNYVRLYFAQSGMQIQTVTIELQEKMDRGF
Experimental: as §2

BpGH16MLG (BPGH16) = experiment: Michaelis-Menten kinetics of BpGH16MLG on β-glucans (DNS assay); type: biochemical, Blautia producta ATCC 27340; conditions: native BPGH16; DNS assay; pH 5.7, 37 °C
Experimental: Then, reactions were terminated by boiling for 5 min. Enzymatic assays were determined with 3,5- dinitrosalicylic acid (DNS) assay ([85]). In brief, 0.05 g Na2SO3 and 1 g DNS were mixed in a 50 ml water-containing reagent bottle and stirred about 6 h using a magnetic stirrer. After that, 200 μl phenol was added and made up to 100 ml. A working solution of DNS was prepared by adding 50 μl glucose (20% (w/v) stock) in prepared 100 ml of reagent mixtures and immediately used for experiments without adding NaOH. 80 μl DNS reagent was added to the reaction mixtures and incubated at 100 °C for 10 min, followed by ice-cooling for 10 min. Consequently, recorded the developed color spectrophotometrically at 575 nm ([85]). A standard curve generated by different concentrations of maltose was used for determining released reducing sugars in each case.

[3] = ITC at 25 °C, 10 mM sodium phosphate pH 7.0

BpSBPMLG, sequence (A0ABX6JB09 entry or part of it): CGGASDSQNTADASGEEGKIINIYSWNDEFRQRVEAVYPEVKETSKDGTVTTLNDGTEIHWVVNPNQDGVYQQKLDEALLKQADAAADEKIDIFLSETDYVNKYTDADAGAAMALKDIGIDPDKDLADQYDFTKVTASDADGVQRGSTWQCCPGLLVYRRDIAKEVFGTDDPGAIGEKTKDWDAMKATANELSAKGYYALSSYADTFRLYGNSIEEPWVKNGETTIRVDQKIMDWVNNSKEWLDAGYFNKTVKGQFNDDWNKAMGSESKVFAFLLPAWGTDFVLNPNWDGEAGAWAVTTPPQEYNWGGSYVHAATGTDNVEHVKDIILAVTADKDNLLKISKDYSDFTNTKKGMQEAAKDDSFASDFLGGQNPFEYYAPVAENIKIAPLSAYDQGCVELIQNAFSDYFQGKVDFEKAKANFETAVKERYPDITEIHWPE
BpGH3-AR8MLG, sequence (A0ABX6J8C8 entry or part of it): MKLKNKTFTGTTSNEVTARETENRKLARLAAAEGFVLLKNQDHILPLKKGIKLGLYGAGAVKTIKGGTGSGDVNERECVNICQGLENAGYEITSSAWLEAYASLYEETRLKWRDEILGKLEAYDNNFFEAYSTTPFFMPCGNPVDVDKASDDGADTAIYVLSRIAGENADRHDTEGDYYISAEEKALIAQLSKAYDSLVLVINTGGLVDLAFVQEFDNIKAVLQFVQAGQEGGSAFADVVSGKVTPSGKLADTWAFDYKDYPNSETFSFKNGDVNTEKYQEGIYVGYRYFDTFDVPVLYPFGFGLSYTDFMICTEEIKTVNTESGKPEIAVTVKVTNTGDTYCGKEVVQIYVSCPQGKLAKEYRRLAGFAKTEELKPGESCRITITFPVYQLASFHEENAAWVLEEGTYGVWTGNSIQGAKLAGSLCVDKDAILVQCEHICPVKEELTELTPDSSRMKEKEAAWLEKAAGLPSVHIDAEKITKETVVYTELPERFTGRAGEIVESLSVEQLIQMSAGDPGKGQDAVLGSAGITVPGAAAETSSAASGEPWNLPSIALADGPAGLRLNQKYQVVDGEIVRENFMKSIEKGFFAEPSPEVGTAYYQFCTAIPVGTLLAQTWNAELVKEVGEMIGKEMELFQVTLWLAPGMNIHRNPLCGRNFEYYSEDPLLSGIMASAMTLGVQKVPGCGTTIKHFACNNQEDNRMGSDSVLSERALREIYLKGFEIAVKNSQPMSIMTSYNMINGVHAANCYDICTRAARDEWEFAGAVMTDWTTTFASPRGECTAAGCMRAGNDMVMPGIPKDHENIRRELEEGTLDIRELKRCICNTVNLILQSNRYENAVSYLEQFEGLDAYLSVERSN

Row | Compound | activity of BpGH16MLG on substrate (initial screening) (BpGH16MLG) | phosphorolysis activity of BpGH94MLG (in words) (BpGH94MLG [1]) | Kd (BpSBPMLG) [µM] | -TΔS^0 (BpSBPMLG; [3]) [kcal/mol] | n (binding stoichiometry) (BpSBPMLG; [3]) | ΔG^0 (BpSBPMLG; [3]) [kcal/mol] | ΔH (BpSBPMLG; [3]) [kcal/mol] | binding to BpSBPMLG (in words) (BpSBPMLG; ITC) | also measured
1 | yeast β-glucan | did cleave |  |  |  |  |  |  |  | 
2 | lentinan | did cleave |  |  |  |  |  |  |  | 
3 | OC[C@H]1O[C@@](CO)(O[C@H]2O[C@H](CO)[C@@H](O)[C@H](O)[C@H]2O)[C@@H](O)[C@@H]1O [sucrose] | did not show activity | did not show any phosphorolysis activity |  |  |  |  |  |  | 
4 | OC[C@H]1O[C@@H](O[C@H]2[C@H](O)[C@@H](O)[C@H](O[C@H]3[C@H](O)[C@@H](O)[C@H](O[C@H]4[C@H](O)[C@@H](O)C(O)O[C@@H]4CO)O[C@@H]3CO)O[C@@H]2CO)[C@H](O)[C@@H](O)[C@@H]1O (some centres unmarked) [Cellotetraose] |  |  | 0.75 | 8.25 | 0.45 ± 0.02 | -8.35 | -16.6 ± 0.75 |  | n (binding stoichiometry) (BpSBPMLG; ITC at 25 °C, 10 mM sodium phosphate pH 7.0, listed as cellotetraose): 0.45; Km (BpGH3-AR8MLG): 470 ± 60 µM; kcat (BpGH3-AR8MLG): 20 ± 0.2 s⁻¹
5 | OC[C@H]1O[C@@H](O[C@@H]2[C@@H](O)[C@H](O[C@@H]3[C@@H](O)[C@H](O[C@H]4[C@H](O)[C@@H](CO)OC(O)[C@@H]4O)O[C@H](CO)[C@H]3O)O[C@H](CO)[C@H]2O)[C@H](O)[C@@H](O)[C@@H]1O (some centres unmarked) [Laminaritetraose] |  |  |  | 5.29 |  |  | -0.15 ± 0.12 |  | Kd (BpSBPMLG; ITC, read-out: Kd): 5600 µM
6 | O=C[C@H](O)[C@@H](O)[C@H](O[C@@H]1O[C@H](CO)[C@@H](O)[C@H](O)[C@H]1O)[C@H](O)CO [Cellobiose] | did not show activity | did not show any phosphorolysis activity | 30.6 | 0.8 | 0.78± 0.18 | -6.2 | -7.0 ± 2.2 | some affinity | Km (TaCDP): 120 µM; kcat (TaCDP): 0.23 s⁻¹; Km (BpGH3-AR8MLG): 200 ± 30 µM; kcat (BpGH3-AR8MLG): 8 ± 0.1 s⁻¹
7 | OC[C@H]1O[C@@H](O[C@H]2[C@H](O)[C@@H](O)[C@H](O[C@H]3[C@H](O)[C@@H](O)[C@H](O[C@H]4[C@H](O)[C@@H](CO)OC(O)[C@@H]4O)O[C@@H]3CO)O[C@@H]2CO)[C@H](O)[C@@H](O)[C@@H]1O (stereo partly drawn) [G4G4G3G, Glc-β-1-4-Glc-β-1-4-Glc-β-1-3-Glc] |  |  | 5.14 | 5.7 | 0.77 and 0.77 ± 0.02 | -7.22 | -12.9 ± 0.85 |  | Km fold-change (BpGH94MLG [2]): ~0.75 fold; kcat/Km higher compared to G4G3G (BpGH94MLG [2]): 1.6 fold; kcat/Km higher compared to cellotriose (BpGH94MLG [2]): 2.4 fold; kcat (BpGH3-X62MLG; PAHBAH assay, 100 mM HEPES pH 6.5, 37 °C): 18 ± 0.3 s⁻¹; cleavage by BpGH3-X62MLG (in words) (BpGH3-X62MLG; TLC): cleaved; Kd (BpSBPMLG; [3]): 5.14 µM; cleavage by BpGH3-AR8MLG (in words) (BpGH3-AR8MLG; TLC): cleaved
8 | Oat β-glucan | did cleave |  |  |  |  |  |  |  | Km (BpGH16MLG (BPGH16)): 0.32 ± 0.05 mg/mL; kcat (BpGH16MLG (BPGH16)): 46 ± 0.8 s⁻¹
9 | OC[C@H]1O[C@H](O[C@H]2[C@H](O)[C@@H](O)[C@H](O)O[C@@H]2CO)[C@H](O)[C@@H](O)[C@@H]1O [maltose] | did not show activity | did not show any phosphorolysis activity |  |  |  |  |  | no detectable affinity | 
10 | Gentiobiose | did not show activity | did not show any phosphorolysis activity |  |  |  |  |  | no detectable affinity | 
11 | OC[C@H]1O[C@@H](O[C@@H]2[C@@H](O)[C@H](O[C@H]3[C@H](O)[C@@H](CO)OC(O)[C@@H]3O)O[C@H](CO)[C@H]2O)[C@H](O)[C@@H](O)[C@@H]1O (some centres unmarked) [Laminaritriose] | did cleave | did not show any phosphorolysis activity | 3.41 | 3.8 | 0.9 ± 0.01 | -7.46 | -3.66 ± 0.02 |  | 
12 | OC[C@H]1O[C@@H](O[C@H]2[C@H](O)[C@@H](O)[C@H](O)O[C@@H]2CO)[C@H](O)[C@@H](O)[C@H]1O [lactose] |  |  |  |  |  |  |  | no detectable affinity | 
13 | OC[C@H]1O[C@@H](O[C@H]2[C@H](O)[C@@H](CO)OC(O)[C@@H]2O)[C@H](O)[C@@H](O)[C@@H]1O (some centres unmarked) [Laminaribiose] | did not show activity | did not show any phosphorolysis activity | 22.1 |  | 1.03 ± 0.02 | -6.35 | -3.14 ± 0.16 | some affinity | Km (BpGH3-AR8MLG): 240 ± 30 µM; kcat (BpGH3-AR8MLG): 12 ± 0.2 s⁻¹
